Target: MAPK14 (human) (UniProt Q16539)
Assay: Assessment of MAPK14 Kinase Activity

Sequence of MAPK14 (human) (Q16539 whole entry, looked up): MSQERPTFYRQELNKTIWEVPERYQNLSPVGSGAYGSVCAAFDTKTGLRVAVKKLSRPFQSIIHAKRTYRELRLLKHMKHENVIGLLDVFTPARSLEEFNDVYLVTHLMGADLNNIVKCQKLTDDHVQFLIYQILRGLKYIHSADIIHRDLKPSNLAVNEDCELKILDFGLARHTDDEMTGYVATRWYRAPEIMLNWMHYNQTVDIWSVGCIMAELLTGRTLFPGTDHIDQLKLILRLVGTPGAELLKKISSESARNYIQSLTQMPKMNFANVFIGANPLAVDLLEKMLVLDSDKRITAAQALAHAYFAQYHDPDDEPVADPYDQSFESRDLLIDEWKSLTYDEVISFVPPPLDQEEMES

Row | IC50 | SMILES
1 | 8.96 nM | O[C@@H](CNc1nccc(-c2c(-c3ccc(F)cc3)nc3occn23)n1)c1ccccc1
2 | 34.8 nM | C[C@@H](CO)Nc1nccc(-c2c(-c3ccc(F)cc3)nc3occn23)n1
3 | 10000 nM | CS(=O)(=O)c1nccc(-c2c(-c3ccc(F)c(F)c3)nc3sccn23)n1
4 | 87.1 nM | OCCC(CO)Nc1nccc(-c2c(-c3ccc(F)cc3)nc3sccn23)n1 (configuration not stated)
5 | 10000 nM | COc1cccc(-c2nc3sccn3c2-c2ccnc(S(C)(=O)=O)n2)c1
6 | 7.26 nM | CC(C)(C)OC(=O)N1CCC[C@H]1CNc1nccc(-c2c(-c3ccc(F)cc3)nc3sccn23)n1
7 | 10000 nM | Cc1ccc(-c2nc3sccn3c2-c2ccnc(S(C)(=O)=O)n2)cc1
8 | 890 nM | CCCCCOc1nccc(-c2c(-c3ccc(F)cc3)nc3sccn23)n1
9 | 37.1 nM | C[C@@H](O)CNc1nccc(-c2c(-c3ccc(F)cc3)nc3occn23)n1
10 | 527 nM | Fc1ccc(-c2nc3sccn3c2-c2ccnc(N3CCCCC3)n2)cc1
11 | > 10000 nM | COc1cccc(-c2nc3sccn3c2-c2nc(SC)ncc2-c2ccccc2)c1

Row | SMILES | IC50
12 | Fc1ccc(Cl)c(-c2nc3occn3c2-c2ccnc(N[C@@H]3CN4CCC3CC4)n2)c1 | 6.8 nM
